According to patent US20110263454A1, “Methods of Identifying Functional Characteristics of Promoters, Transcription Modifying Proteins and Transcription Modulating Agents” (Salk Institute for Biological Studies, priority 2008, published 2011):

B1: HNF4a: Hepatocyte Nuclear Factor α (NR2A1), cDNA driver (protein, UniProt P41235 1-474, looked up)
Hepatocyte nuclear factor …: MRLSKTLVDMDMADYSAALDPAYTTLEFENVQVLTMGNDTSPSEGTNLNAPNSLGVSALCAICGDRATGKHYGASSCDGCKGFFRRSVRKNHMYSCRFSRQCVVDKDKRNQCRYCRLKKCFRAGMKKEAVQNERDRISTRRSSYEDSSLPSINALLQAEVLSRQITSPVSGINGDIRAKKIASIADVCESMKEQLLVLVEWAKYIPAFCELPLDDQVALLRAHAGEHLLLGATKRSMVFKDVLLLGNDYIVPRHCPELAEMSRVSIRILDELVLPFQELQIDDNEYAYLKAIIFFDPDAKGLSDPGKIKRLRSQVQVSLEDYINDRQYDSRGRFGELLLLLPTLQSITWQMIEQIQFIKLFGMAKIDNLLQEMLLGGSPSDAPHAHHPLHPHLMQEHMGTNVIVANTMPTHLSNGQMCEWPRPRGQAATPETPQPSPPGGSGSEPYKLLPGAVATIVKPLSAIPQPTITKQEVI
B2: LXRb: Liver X Receptor β (NR1H2), cDNA driver (protein, UniProt P55055 1-460, looked up)
Oxysterols receptor LXR-beta: MSSPTTSSLDTPLPGNGPPQPGAPSSSPTVKEEGPEPWPGGPDPDVPGTDEASSACSTDWVIPDPEEEPERKRKKGPAPKMLGHELCRVCGDKASGFHYNVLSCEGCKGFFRRSVVRGGARRYACRGGGTCQMDAFMRRKCQQCRLRKCKEAGMREQCVLSEEQIRKKKIRKQQQESQSQSQSPVGPQGSSSSASGPGASPGGSEAGSQGSGEGEGVQLTAAQELMIQQLVAAQLQCNKRSFSDQPKVTPWPLGADPQSRDARQQRFAHFTELAIISVQEIVDFAKQVPGFLQLGREDQIALLKASTIEIMLLETARRYNHETECITFLKDFTYSKDDFHRAGLQVEFINPIFEFSRAMRRLGLDDAEYALLIAINIFSADRPNVQEPGRVEALQQPYVEALLSYTRIKRPQDQLRFPRMLMKLVSLRTLSSVHSEQVFALRLQDKKLPPLLSEIWDVHE
B3: RORa: RAR-related Orphan Receptor α (NR1F1), cDNA driver (protein, UniProt P35398 1-523, looked up)
Nuclear receptor ROR-alpha: MESAPAAPDPAASEPGSSGADAAAGSRETPLNQESARKSEPPAPVRRQSYSSTSRGISVTKKTHTSQIEIIPCKICGDKSSGIHYGVITCEGCKGFFRRSQQSNATYSCPRQKNCLIDRTSRNRCQHCRLQKCLAVGMSRDAVKFGRMSKKQRDSLYAEVQKHRMQQQQRDHQQQPGEAEPLTPTYNISANGLTELHDDLSNYIDGHTPEGSKADSAVSSFYLDIQPSPDQSGLDINGIKPEPICDYTPASGFFPYCSFTNGETSPTVSMAELEHLAQNISKSHLETCQYLREELQQITWQTFLQEEIENYQNKQREVMWQLCAIKITEAIQYVVEFAKRIDGFMELCQNDQIVLLKAGSLEVVFIRMCRAFDSQNNTVYFDGKYASPDVFKSLGCEDFISFVFEFGKSLCSMHLTEDEIALFSAFVLMSADRSWLQEKVKIEKLQQKIQLALQHVLQKNHREDGILTKLICKVSTLRALCGRHTEKLMAFKAIYPDIVRLHFPPLYKELFTSEFEPAMQIDG

Legend:
[1] = test system: hIFNg promoter; experiment: NHR-promoter luciferase screen, hIFNg promoter; format: cell-based, human; settings: for Luc. act., normalized to lacZ / Normalized Luc. act., normalized to control: IFNg promoter, HR component without or with ligand; for hIFNg promoter reporter activity: transcription factor +/- ligand, control = 1.00
Method: (§1) The use, feasibility, and reproducibility of the functional NHR-promoter screen in a 48-well format have been tested validated. Briefly, there were co-expressed 50 ng of each NHR/NHR homodimer or NHR/RXR heterodimer with 100 ng promoter/luciferase construct and 50 ng of LacZ (as a control for transfection efficiency) in CV-1 cells using Fugene HD (Roche) as a transfection reagent (alternatively or additionally, a CMV-YFP construct can be used as a transfection control). Each of the nuclear hormone receptors that were used in these experiments was cloned into a pcDNA3.1 vector and comprised a C-terminally linked V5H6 tag. Twenty-four hours after transfection, appropriate ligands were added, where applicable, (see Table 5 for various ligands and concentrations and after 48 hrs, samples were assayed for luciferase and LacZ activity. To measure for luciferase activity 15 ul of sample was added to 30 ul of luciferase buffer (20 mM tricine, 1.07 mM MgCarbonate, 2.67 mM MgSulfate, 0.1 mM Naz-EDTA, 5 mM DTT, 5 mM ATP, 0.15 mg/ml CoA, 0.5 mM Luciferin), mixed briefly, and run in a Perkin Elmer Victor 5 luminometer. Thus, the functional NHR-promoter screen was used to observe the transcriptional activity of 29 promoters from various physiological pathways including inflammation, lipid and sugar metabolism, cholesterol transport, xenobiotic metabolism, and circadian rhythm.
(§2) The promoters that facilitate transcription of the indicated gene products that were tested using the protocols described herein are listed in the first row of the table. The nuclear hormone receptors and, where applicable, ligands that were assayed for their transcriptional effects on the promoters are listed in the first column of the table. The data represent the luciferase activity of each sample normalized to both the lacZ activity of that sample and to a control, e.g., no NHR or ligand, as customary in the art. As described previously, these normalizations allow the transcriptional activity of each reporter cell to be compared to other samples.
(§3) Tables 7-40 show the transcriptional effects of the hormone receptors, and, where applicable, ligands (orphan receptors are screened without ligand), on each individual promoter. […] The control data of each table are shown in their last rows.

[2] = test system: hG6PD promoter; experiment: NHR-promoter luciferase screen, hG6PD promoter; format: cell-based, human; settings: for Luc. act., normalized to lacZ / Normalized Luc. act., normalized to control: G6PD promoter reporter, co-transfected HR, without or with its ligand; for Normalized Luc. act., normalized to control: relative to control; for luciferase activity normalized to lacZ activity and to a control, hG6PD: hG6PD promoter-luciferase, CV-1 cells, NHR +/- ligand, control = 1.00
Method: as §1, §2, §3

[3] = test system: mADRP promoter; experiment: NHR-promoter luciferase screen, mADRP promoter; format: cell-based, mouse; settings: for Luc. act., normalized to lacZ / Normalized Luc. act., normalized to control: ADRP promoter, HR/ligand component; for mADRP promoter reporter activity: transcription factor +/- ligand, control = 1.00
Method: as §1, §2, §3

Row | Molecule | Luc. act., normalized to lacZ [1] | Normalized Luc. act., normalized to control [1] | hIFNg promoter reporter activity [1] | Luc. act., normalized to lacZ [2] | Normalized Luc. act., normalized to control [2] | luciferase activity normalized to lacZ activity and to a control, hG6PD [2] | Luc. act., normalized to lacZ [3] | Normalized Luc. act., normalized to control [3] | mADRP promoter reporter activity [3]
1 | GR: Glucocorticoid Receptor (NR3C1), cDNA driver | 8.9 | 0.6 | 0.56 | 22.3 | 0.6 | 0.60 | 238.1 | 0.5 | 0.48
2 | PNR: Photoreceptor-specific Nuclear Receptor (NR2E3), cDNA driver | 11.3 | 0.7 | 0.71 | 45.9 | 1.2 | 1.23 | 381.7 | 0.8 | 0.77
3 | AR: Androsterone Receptor (NR3C4), cDNA driver | 31.4 | 2.0 | 1.97 | 41.5 | 1.1 | 1.11 | 600.8 | 1.2 | 1.21
4 | VDR: Vitamin D Receptor (NR1I1), cDNA driver | 16.06 | 1.0 | 1.01 | 43.1 | 1.2 | 1.15 | 766.6 | 1.5 | 1.54
5 | RXRa: Retinoic X Receptor α (NR2B1), cDNA driver | 13.1 | 0.8 | 0.82 | 45.6 | 1.2 | 1.22 | 783.2 | 1.6 | 1.57
6 | NR4a1: NR4a1 (NR4A1; NUR77), nuclear hormone receptor cDNA driver | 35.6 | 2.2 | 2.24 | 77.6 | 2.1 | 2.07 | 1029.3 | 2.1 | 2.07
7 | ERR1: Estrogen Related Receptor α (NR3B1, ERRa), cDNA driver | 18.5 | 1.2 | 1.17 | 59.1 | 1.6 | 1.58 | 767.6 | 1.5 | 1.54
8 | SF-1: Steroidogenic Factor 1 (NR5A1, SF1), cDNA driver | 46.3 | 2.9 | 2.91 | 124.1 | 3.3 | 3.32 | 1864.1 | 3.7 | 3.75
9 | PPARa: Peroxisome proliferator activated receptor α (NR1C1), cDNA driver | 11.3 | 0.7 | 0.71 | 55.6 | 1.5 | 1.49 | 1497.1 | 3.0 | 3.01
10 | TLX: Tailless (homolog of drosophila) (NR2E1), cDNA driver | 28.0 | 1.8 | 1.76 | 107.9 | 2.9 | 2.89 | 259.2 | 0.5 | 0.52
11 | B1 | 8.7 | 0.5 | 0.55 | 34.8 | 0.9 | 0.93 | 729.1 | 1.5 | 1.47
12 | B2 | 19.35 | 1.2 | 1.22 | 46.8 | 1.3 | 1.25 | 1191.8 | 2.4 | 2.40
13 | B3 | 8.8 | 0.6 | 0.55 | 74.0 | 2.0 | 1.98 | 976.2 | 2.0 | 1.96
